In patent publication US9809574B2, “Isoindoline or isoquinoline compounds, a process for their preparation and pharmaceutical compositions containing them” (LES LABORATOIRES SERVIER, priority 2013, dated 2017):
Structures can show the parent of a compound that is named as a salt.

Key:
Bcl-2 protein = Bcl-2 protein (histag-Bcl-2, UniProtKB P10415) (Homo sapiens (Human), UniProt P10415); test: Inhibition of Bcl-2 by the fluorescence polarisation technique; type: binding; conditions: fluorescence polarisation test; incubation for 2 hours; read-out: IC50 (nM) Bcl-2 FP
Description: For partial inhibitors, the percentage fluorescence polarisation inhibition for a given concentration of the test compound is indicated.

[1] = test system: RS4; 11 leukaemia cell line; test: In vitro cytotoxicity, Microculture Tetrazolium Assay (MTT); type: cell-based; conditions: 11 cells exposed for 48 hours
Protocol: The cytotoxicity studies were carried out on the RS4; 11 leukaemia cell line and on H146 small Cell Lung Carcinoma cell line. The cells are distributed onto microplates and exposed to the test compounds for 48 hours. The cell viability is then quantified by a colorimetric assay, the Microculture Tetrazolium Assay (Cancer Res., 1987, 47, 939-942).

Chain of Bcl-2 protein (P10415 whole entry): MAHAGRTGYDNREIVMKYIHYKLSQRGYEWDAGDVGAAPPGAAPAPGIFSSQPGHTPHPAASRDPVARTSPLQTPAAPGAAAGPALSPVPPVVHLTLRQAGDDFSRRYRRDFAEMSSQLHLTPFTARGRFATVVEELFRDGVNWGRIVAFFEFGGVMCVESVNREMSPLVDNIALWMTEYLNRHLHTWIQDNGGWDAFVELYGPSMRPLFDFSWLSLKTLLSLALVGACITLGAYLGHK

Row | IC50 (Bcl-2 protein) [nM] | Structure (SMILES) | IC50 ([1]; Homo sapiens) [nM] | IC50 [1] [nM]
1 | 43 | CN(C(=O)c1cc(-c2cc3c(cc2C(=O)N2Cc4ccccc4C[C@H]2CN2CCOCC2)CN(C(=O)c2ccccc2)C3)n2c1CCCC2)c1ccc(O)cc1 [Example 12, 3-{2-Benzoyl-6-[(3S)-3-(morpholin-4-ylmethyl)-1,2,3,4-tetrahydroisoquinoline-2-carbonyl]-2,3-dihydro-1H-isoindol-5-yl}-N-(4-hydroxyphenyl)-N-methyl-5,6,7,8-tetrahydroindolizine-1-carboxamide hydrochloride] | 759 | –
2 | 3.5 | Cc1c(C(=O)N(C)c2ccc(O)cc2)cc(-c2cc3c(cc2C(=O)N2Cc4ccccc4C[C@H]2CN2CCOCC2)CN(C(=O)Cc2ccccc2)CC3)n1C [Example 89, N-(4-Hydroxyphenyl)-N,1,2-trimethyl-5-{7-[(3S)-3-(morpholin-4-ylmethyl)-1,2,3,4-tetrahydroisoquinoline-2-carbonyl]-2-(2-phenylacetyl)-1,2,3,4-tetrahydroisoquinolin-6-yl}-1H-pyrrole-3-carboxamide] | 24 | –
3 | 108 | C[C@@H]1Cc2ccccc2CN1C(=O)c1cc2c(cc1-c1cc(C(=O)N(C)c3ccc(O)cc3)c3n1CCCC3)CN(C(=O)OC(C)(C)C)C2 [Example 13, tert-Butyl 5-{1-[(4-hydroxyphenyl)(methyl)carbamoyl]-5,6,7,8-tetrahydroindolizin-3-yl}-6-[(3R)-3-methyl-1,2,3,4-tetrahydroisoquinoline-2-carbonyl]-2,3-dihydro-1H-isoindole-2-carboxylate] | 729 | –
4 | 29 | Cc1ccc(CC(C)C(=O)N2Cc3cc(C(=O)N4Cc5ccccc5C[C@H]4C)c(-c4cc(C(=O)N(C)c5ccc(O)cc5)c5n4CCCC5)cc3C2)cc1 (stereo partly drawn) [Example 25, N-(4-Hydroxyphenyl)-N-methyl-3-{6-[(3R)-3-methyl-1,2,3,4-tetrahydroisoquinoline-2-carbonyl]-2-{2-[(4-methylphenyl)methyl]propanoyl}-2,3-dihydro-1H-isoindol-5-yl}-5,6,7,8-tetrahydroindolizine-1-carboxamide] | 144 | –
5 | 2.2 | Cc1c(C(=O)N(C)c2ccc(O)cc2)cc(-c2cc3c(cc2C(=O)N2Cc4ccccc4C[C@H]2C)CN(C(=O)Oc2cccc(C(=O)O)c2)CC3)n1C [Example 715, 3-(6-{4-[(4-Hydroxyphenyl)(methyl)carbamoyl]-1,5-dimethyl-1H-pyrrol-2-yl}-7-[(3R)-3-methyl-1,2,3,4-tetrahydroisoquinoline-2-carbonyl]-1,2,3,4-tetrahydroisoquinoline-2-carbonyloxy)benzoic acid] | > 150 | –
6 | 4.1 | Cc1c(C(=O)N(C)c2ccc(O)cc2)cc(-c2cc3c(cc2C(=O)N2Cc4ccccc4C[C@H]2CN(C)C)CN(C(=O)Cc2ccccc2)CC3)n1C [Example 777, 5-{7-[(3S)-3-[(Dimethylamino)methyl]-1,2,3,4-tetrahydroisoquinoline-2-carbonyl]-2-(2-phenylacetyl)-1,2,3,4-tetrahydroisoquinolin-6-yl}-N-(4-hydroxyphenyl)-N,1,2-trimethyl-1H-pyrrole-3-carboxamide] | 30 | –
7 | 5.5 | Cc1c(C(=O)N(C)c2ccc(O)cc2)cc(-c2cc3c(cc2C(=O)N2Cc4ccccc4C[C@H]2C)CN(C(=O)Cc2ccccc2)C3)n1C [Example 80, N-(4-Hydroxyphenyl)-N,1,2-trimethyl-5-{6-[(3R)-3-methyl-1,2,3,4-tetrahydroisoquinoline-2-carbonyl]-2-(2-phenylacetyl)-2,3-dihydro-1H-isoindol-5-yl}-1H-pyrrole-3-carboxamide] | 71 | –
8 | 4.4 | Cc1c(C(=O)N(C)c2ccc(O)cc2)cc(-c2cc3c(cc2C(=O)N2Cc4ccccc4C[C@H]2CN2CCOCC2)CN(C(=O)NC2CCCCC2)CC3)n1C [Example 793, N-Cyclohexyl-6-{4-[(4-hydroxyphenyl)(methyl)carbamoyl]-1,5-dimethyl-1H-pyrrol-2-yl}-7-[(3S)-3-(morpholin-4-ylmethyl)-1,2,3,4-tetrahydroisoquinoline-2-carbonyl]-1,2,3,4-tetrahydroisoquinoline-2-carboxamide] | 92 | –
9 | 4.6 | Cc1c(C(=O)N(C)c2ccc(O)cc2)cc(-c2cc3c(cc2C(=O)N2Cc4ccccc4C[C@H]2CN2CCOCC2)CN(C(=O)CC2CCCCC2)CC3)n1C [Example 794, 5-[2-(2-Cyclohexylacetyl)-7-[(3S)-3-(morpholin-4-ylmethyl)-1,2,3,4-tetrahydroisoquinoline-2-carbonyl]-1,2,3,4-tetrahydroisoquinolin-6-yl]-N-(4-hydroxyphenyl)-N,1,2-trimethyl-1H-pyrrole-3-carboxamide] | 70 | –
10 | 15 | C[C@@H]1Cc2ccccc2CN1C(=O)c1cc2c(cc1-c1cc(C(=O)N(C)c3ccc(O)cc3)c3n1CCCC3)CN(C(=O)Oc1ccccc1)C2 [Example 45, Phenyl 5-{1-[(4-hydroxyphenyl)(methyl)carbamoyl]-5,6,7,8-tetrahydroindolizin-3-yl}-6-[(3R)-3-methyl-1,2,3,4-tetrahydroisoquinoline-2-carbonyl]-2,3-dihydro-1H-isoindole-2-carboxylate] | 20 | –
11 | 4.6 | C[C@@H]1Cc2ccccc2CN1C(=O)c1cc2c(cc1-c1cc(C(=O)N(c3ccc(O)cc3)c3cnc4c(ccn4C)c3)c3n1CCCC3)CN(C(=O)COc1ccccc1)C2 [Example 158, N-(4-Hydroxyphenyl)-3-{6-[(3R)-3-methyl-1,2,3,4-tetrahydroisoquinoline-2-carbonyl]-2-(2-phenoxyacetyl)-2,3-dihydro-1H-isoindol-5-yl}-N-{1-methyl-1H-pyrrolo[2,3-b]pyridin-5-yl}-5,6,7,8-tetrahydroindolizine-1-carboxamide] | 3.5 | –
12 | 3.3 | Cc1ccc(OC(=O)N2CCc3cc(-c4cc(C(=O)N(C)c5ccccc5)c(C)n4C)c(C(=O)N4Cc5ccccc5C[C@H]4C)cc3C2)cc1 [Example 785, 4-Methylphenyl 6-{1,5-dimethyl-4-[methyl(phenyl)carbamoyl]-1H-pyrrol-2-yl}-7-[(3R)-3-methyl-1,2,3,4-tetrahydroisoquinoline-2-carbonyl]-1,2,3,4-tetrahydroisoquinoline-2-carboxylate] | 7.8 | –
13 | 3.5 | CCN(C(=O)c1cc(-c2cc3c(cc2C(=O)N2Cc4ccccc4C[C@H]2CN2CCOCC2)CN(C(=O)Cc2ccccc2)CC3)n(C)c1C)c1ccc(O)cc1 [Example 780, N-Ethyl-N-(4-hydroxyphenyl)-1,2-dimethyl-5-{7-[(3S)-3-(morpholin-4-ylmethyl)-1,2,3,4-tetrahydroisoquinoline-2-carbonyl]-2-(2-phenylacetyl)-1,2,3,4-tetrahydroisoquinolin-6-yl}-1H-pyrrole-3-carboxamide] | 17 | –

Row | Structure (SMILES) | IC50 (Bcl-2 protein) [nM] | IC50 ([1]; Homo sapiens) [nM] | IC50 [1] [nM]
14 | Cc1c(C(=O)N(C)c2ccc(O)cc2)cc(-c2cc3c(cc2C(=O)N2Cc4ccccc4C[C@H]2CN2CCN(C)CC2)CN(C(=O)Oc2ccccc2)CC3)n1C [Example 214, Phenyl 6-{4-[(4-hydroxyphenyl)(methyl)carbamoyl]-1,5-dimethyl-1H-pyrrol-2-yl}-7-[(3S)-3-[(4-methylpiperazin-1-yl)methyl]-1,2,3,4-tetrahydroisoquinoline-2-carbonyl]-1,2,3,4-tetrahydroisoquinoline-2-carboxylate] | 2.7 | 4.1 | –
15 | Cc1c(C(=O)N(C)c2ccccc2)cc(-c2cc3c(cc2C(=O)N2Cc4ccccc4C[C@H]2CN2CCOCC2)CN(C(=O)Oc2cnc4c(ccn4C)c2)CC3)n1C [Example 634, 1-Methyl-1H-pyrrolo[2,3-b]pyridin-5-yl 6-{1,5-dimethyl-4-[methyl(phenyl)carbamoyl]-1H-pyrrol-2-yl}-7-[(3S)-3-(morpholin-4-ylmethyl)-1,2,3,4-tetrahydroisoquinoline-2-carbonyl]-1,2,3,4-tetrahydroisoquinoline-2-carboxylate] | 6.9 | 21 | –
16 | CCN(C(=O)c1cc(-c2cc3c(cc2C(=O)N2Cc4ccccc4C[C@H]2CN2CCOCC2)CN(C(=O)Oc2ccccc2)CC3)n(C)c1C)c1ccc(O)cc1 [Example 185, Phenyl 6-{4-[ethyl(4-hydroxyphenyl)carbamoyl]-1,5-dimethyl-1H-pyrrol-2-yl}-7-[(3S)-3-(morpholin-4-ylmethyl)-1,2,3,4-tetrahydroisoquinoline-2-carbonyl]-1,2,3,4-tetrahydroisoquinoline-2-carboxylate] | 3.7 | 4.5 | –
17 | COc1ccc(OC(=O)N2CCc3cc(-c4cc(C(=O)N(C)c5ccc(O)cc5)c5n4CCCC5)c(C(=O)N4Cc5ccccc5C[C@H]4CN4CCOCC4)cc3C2)cc1 [Example 121, 4-Methoxyphenyl 6-{1-[(4-hydroxyphenyl)(methyl)carbamoyl]-5,6,7,8-tetrahydroindolizin-3-yl}-7-[(3S)-3-(morpholin-4-ylmethyl)-1,2,3,4-tetrahydroisoquinoline-2-carbonyl]-1,2,3,4-tetrahydroisoquinoline-2-carboxylate] | 2.9 | 2.8 | –
18 | Cc1c(C(=O)N(C)c2ccc(O)cc2)cc(-c2cc3c(cc2C(=O)N2Cc4ccccc4C[C@H]2C)CN(C(=O)Oc2cccc(OCCN(C)C)c2)CC3)n1C [Example 434, 3-[2-(Dimethylamino)ethoxy]phenyl 6-{4-[(4-hydroxyphenyl)(methyl)carbamoyl]-1,5-dimethyl-1H-pyrrol-2-yl}-7-[(3R)-3-methyl-1,2,3,4-tetrahydroisoquinoline-2-carbonyl]-1,2,3,4-tetrahydrisoquinoline-2-carboxylate] | 2.9 | – | 1.6
